Measurements from patent US9510598B2, “Nitrogen-containing heterocyclic compounds for plant disease control” (BAYER CROPSCIENCE AG, priority 2012, dated 2016).
Several values for one entry are separate records, joined by “and”; a condition that tells them apart may be missing. Identical values can stand only once. Like-named read-outs stand apart in the source and are kept apart here.

How the values were obtained:
[1] = Table 2, formula (II); method [a]: pH 2.7, 0.1% formic acid in water / acetonitrile gradient
Septoria tritici = assay: In vivo preventive test on Septoria tritici (leaf spot on wheat); settings: 500 ppm; wheat plants sprayed 24 hours before contamination; grading 21 to 28 days after contamination vs control plants
Method in brief: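 Scipion wheat at 1-leaf stage sprayed with compound, controls receiving acetone/tween/DMSO/water vehicle; 24 h later leaves inoculated with Septoria tritici spores (500 000 spores per ml). Efficacy (%) graded versus control plants 21 to 28 days after contamination.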

Botrytis cinerea = assay: In vivo preventive test on Botrytis cinerea (grey mould); settings: 500 ppm; gherkin plants sprayed 24 hours before contamination; grading 4-5 days after contamination vs control plants
Method in brief: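 Gherkin plants ("Vert petit de Paris") sprayed with compound at Z11 cotyledon stage, then inoculated 24 h later with B. cinerea spores (50 000/ml) in PDB/fructose/NH4NO3/KH2PO4 nutrient solution. Incubated at 17 °C, 80% RH; % efficacy versus solvent-treated controls graded 4–5 days after contamination.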

[2] = assay type: physicochemical; settings: HPLC on reversed phase columns, linear gradient 10% to 95% acetonitrile
Sphaerotheca fuliginea = assay: In vivo preventive test on Sphaerotheca fuliginea (powdery mildew on cucurbits); settings: 500 ppm; gherkin plants sprayed 24 hours before contamination; grading 12 days after contamination vs control plants
Method in brief: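 Preventive spray of gherkin plants at Z11 cotyledon stage, grown at 24° C; inoculation 24 hours later with Sphaerotheca fuliginea spores (100 000 spores per ml). Efficacy graded 12 days post-inoculation as % versus solvent-treated control plants.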

[3] = method [a]: pH 2.7, 0.1% formic acid in water / acetonitrile
[4] = method [a]: pH 2.7, 0.1% formic acid in water and acetonitrile

Row | Compound | Log P [1] | log P [2, 3] | log P [2, 4] | % of efficacy (protection) (Septoria tritici) [%] | % of efficacy (protection) (Botrytis cinerea) [%] | % of efficacy (protection) (Sphaerotheca fuliginea) [%]
1 | CC(O)C1(C(=O)O)CC(c2ccc3ncc(Br)cc3c2)=NO1 (mixture of isomers) [II-77] | 1.60 and 1.65 | – | – | – | – | –
2 | CC1(C(=O)O)CC(c2cc3cc(Br)cnc3c(F)c2F)=NO1 (racemic) [II-02] | 2.25[a] | – | – | – | – | –
3 | COc1c(C2=NOC(C)(C(=O)O)C2)cc2cccnc2c1F (racemic) [II-05] | 1.39[a] | – | – | – | – | –
4 | CC1(C(=O)O)CC(c2cc3cc(Br)cnc3cc2F)=NO1 (racemic) [II-07] | 2.14[a] | – | – | – | – | –
5 | O=C(O)C1(C(F)(F)F)CC(c2ccc3ncc(Br)cc3c2)=NO1 (racemic) [II-08] | 1.85[a] | – | – | – | – | –
6 | C#Cc1cnc2ccc(C3=NOC(C)(C(=O)O)C3)cc2c1 (racemic) [II-10] | 1.71[a] | – | – | – | – | –
7 | O=C(O)C1(c2ccccc2)CC(c2ccc3ncc(Br)cc3c2)=NO1 (racemic) [II-12] | 2.76[a] | – | – | – | – | –
8 | O=C(O)C1(C(F)(F)F)CC(c2cc3cc(Br)cnc3c(F)c2F)=NO1 (racemic) [II-13] | 2.01[a] | – | – | – | – | –
9 | COC(=O)C1(c2ccccc2)CC(c2ccc3ncc(Br)cc3c2)=NO1 (racemic) [II-17] | 2.69[a] | – | – | – | – | –
10 | CCOC(=O)C1(C)CC(c2ccc3ncccc3c2)=NO1 (racemic) [II-20] | 1.6[a] | – | – | – | – | –
11 | COC(=O)C1(C(F)(F)F)CC(c2cc3cc(Br)cnc3c(F)c2F)=NO1 (racemic) [II-22] | 3.72[a] | – | – | – | – | –
12 | COC(=O)C1(C)CC(c2ccc3ncc(C#C[Si](C)(C)C)cc3c2)=NO1 (centres unmarked) [II-26] | 4.31[a] | – | – | – | – | –
13 | C#Cc1cnc2c(Cl)cc(C3=NOC(C)(C(=O)NC(C)C)C3)cc2c1 (centres unmarked) [compound 543] | – | 2.96[a] | – | 100 | 100 | 100
14 | C#Cc1cnc2c(Cl)cc(C3=NOC(C)(C(=O)NC4CCC4)C3)cc2c1 (centres unmarked) [compound 544] | – | 3.15[a] | – | 100 | 100 | 98
15 | C#Cc1cnc2c(Cl)cc(C3=NOC(C)(C(=O)NCC4COC(C)(C)O4)C3)cc2c1 (centres unmarked) [compound 559] | – | 2.84[a] | – | 100 | 95 | 85
16 | C#Cc1cnc2ccc(C3=NOC(C(=O)NCC4COC(C)(C)O4)(C(F)F)C3)cc2c1 (centres unmarked) [compound 614] | – | 2.64[a] | – | 97 | 100 | 92
17 | C#Cc1cnc2ccc(C3=NOC(C=C)(C(=O)NC(C)C)C3)cc2c1 (centres unmarked) [compound 727] | – | – | 2.73[a] | 100 | 98 | 98
18 | C=CC1(C(=O)NCC2COC(C)(C)O2)CC(c2ccc3ncc(I)cc3c2)=NO1 (centres unmarked) [compound 729] | – | – | 3.11[a] | 100 | 97 | 100

Continued, in another order:

Row | Log P [1] | log P [2, 3] | log P [2, 4] | Compound | % of efficacy (protection) (Septoria tritici) [%] | % of efficacy (protection) (Botrytis cinerea) [%] | % of efficacy (protection) (Sphaerotheca fuliginea) [%]
19 | 2.94[a] | – | – | COC(=O)C1(C)ON=C(c2ccc3ncc(Br)cc3c2)C1C (mixture of isomers) [II-15] | – | – | –
20 | 2.18[a] | – | – | COC(=O)C1(C(C)O)CC(c2ccc3ncc(Br)cc3c2)=NO1 (mixture of isomers) [II-19] | – | – | –
21 | 1.94[a] | – | – | CC1(C(=O)O)CC(c2ccc3ncc(Br)cc3c2)=NO1 (racemic) [II-03] | – | – | –
22 | 1.73[a] | – | – | COC1(C(=O)O)CC(c2ccc3ncc(Br)cc3c2)=NO1 (racemic) [II-04] | – | – | –
23 | 2.11[a] | – | – | O=C(O)C1(CCl)CC(c2ccc3ncc(Br)cc3c2)=NO1 (racemic) [II-06] | – | – | –
24 | 2.19[a] | – | – | O=C(O)C1(CBr)CC(c2ccc3ncc(Br)cc3c2)=NO1 (racemic) [II-11] | – | – | –
25 | 3.4[a] | – | – | COC(=O)C1(C(F)(F)F)CC(c2ccc3ncc(Br)cc3c2)=NO1 (racemic) [II-14] | – | – | –
26 | 3.03[a] | – | – | COC(=O)C1(CCl)CC(c2ccc3ncc(Br)cc3c2)=NO1 (racemic) [II-16] | – | – | –
27 | 3.27[a] | – | – | COC(=O)C1(C2CC2)CC(c2ccc3ncc(Br)cc3c2)=NO1 (racemic) [II-18] | – | – | –
28 | 3.04[a] | – | – | COC(=O)C1(OC)CC(c2cc3cc(Br)cnc3c(F)c2F)=NO1 (racemic) [II-24] | – | – | –
29 | 3.55[a] | – | – | COC(=O)C1(C)CC(c2cc(C)c3ncc(Br)cc3c2)=NO1 (centres unmarked) [II80] | – | – | –
30 | 3.29[a] | – | – | COC(=O)C1(OC)CC(c2ccc3ncc(Br)cc3c2)=NO1 (centres unmarked) [II-25] | – | – | –
31 | – | 2.39[a] | – | C#Cc1cnc2c(Cl)cc(C3=NOC(C)(C(=O)NCc4cnc(C)cn4)C3)cc2c1 (centres unmarked) [compound 558] | 100 | 97 | 85
32 | – | 3.11[a] | – | COC1(C(=O)NCC2COC(C)(C)O2)CC(c2cc(Cl)c3ncc(Br)cc3c2)=NO1 (centres unmarked) [compound 568] | 100 | 99 | 94
33 | – | 3.15[a] | – | COC1(C(=O)NC(C)C)CC(c2cc(Cl)c3ncc(Br)cc3c2)=NO1 (centres unmarked) [compound 569] | 100 | 100 | 100
34 | – | 3.27[a] | – | CCCn1cc(CNC(=O)C2(OC)CC(c3cc(C)c4ncc(Br)cc4c3)=NO2)c(C)n1 (centres unmarked) [compound 595] | 100 | 100 | 100
35 | – | 2.78[a] | – | COC1(C(=O)NCc2cnc(C)cn2)CC(c2cc(C)c3ncc(Br)cc3c2)=NO1 (centres unmarked) [compound 596] | 100 | 99 | 83
36 | – | 2.39[a] | – | C#Cc1cnc2ccc(C3=NOC(C(=O)NCc4cn(CC)nc4C)(C(F)F)C3)cc2c1 (centres unmarked) [compound 613] | 79 | 100 | 100
37 | – | 2.64[a] | – | CCn1cc(CNC(=O)C2(C(F)F)CC(c3ccc4ncc(Br)cc4c3)=NO2)c(C)n1 (centres unmarked) [compound 621] | 97 | 83 | 97
38 | – | – | 3.08[a] | C=CC1(C(=O)NC(C)C)CC(c2ccc3ncc(Br)cc3c2)=NO1 (centres unmarked) [compound 734] | 100 | 95 | 98
